Assay results published in patent US20260232825A1, “LINKER-DRUG MOLECULE AND ANTIBODY DRUG CONJUGATE, PREPARATION METHOD THEREFOR AND USE THEREOF” (SHANGHAI ESCUGEN BIOTECHNOLOGY CO., LTD., priority 2023, published 2026).
pIC50: −log10 of the molar value. Read-outs that look alike come from different tables or passages of the source.

Legend:
MC38-hClaudin18.2 cells = assay: In vitro tumor cell killing activity, MC38-hClaudin18.2 cell line (AlamarBlue); format: cell-based, mouse
Protocol: 9D1 antibody-drug conjugates prepared in the previous Experimental Examples and Comparative Examples were used for performing in vitro killing test on MC38 cell lines stably expressing human Claudin18.2. MC38-hClaudin18.2 cells were inoculated into a 96-well cell culture plate at 3000 cells/well, adding gradient diluted 9D1 ADCs next day to culture for 48-72 hours. The fluorescence values of each experimental well were detected by AlamarBlue reagent (ThermoFisher, item number DAL1100), and the cell viability was calculated.
When the cell confluence was greater than 80%, the cells were passaged at a ratio of 1:10 to 1:20 every 3 days.
MC38-hClaudin18.2 cells were digested by a digestive solution of recombinant enzyme (TrypLE™ Express Enzyme). […] The cell density was adjusted to 3×10^4 cells/mL, inoculating into 96-well cell culture plate at 100 μL/well. The cells were cultured overnight at 37° C. in 5% C02 incubator. The next day, the test drug was diluted 10 times in a series with a total of 7-8 concentration points, simultaneously setting a blank control with a sample concentration of 0. The diluted sample was added to 96-well cell culture plate containing cells at 100 μL/well, then incubating at 37° C. in 5% CO2 incubator for 48-72 hours. 20 μL of AlamarBlue detection reagent was added to each well, incubating at 37° C. for 4-6 hours, the fluorescence signal intensity was detected on a multifunctional enzyme-linked immunosorbent assay (ELISA) instrument with an excitation wavelength of 560 nm and an emission wavelength of 590 nm.
The cell viability of the blank control was set to 100%, and the cell viability (%) of the experimental well was calculated by the following formula: […]
The detected average cell viability was takedn as the y-axis, a sigmoid dose response (Variable Slope) method (GraphPad Prism software, GraphPad Software, San Diego, California) was used for nonlinear regression to obtain the inhibitory effect curves of cell proliferation, and the corresponding IC50 values (half maximum inhibition concentration) were calculated. […]

NUGC4-hClaudin18.2 cells = assay: In vitro tumor cell killing activity, NUGC4-hClaudin18.2 cell line (CCK-8); format: cell-based; details: Homo sapiens, 120 h, read-out: IC50 values (nM)
Protocol: When the cell confluence was greater than 80%, the cells were passaged at a ratio of 1:3 to 1:10 every 3-4 days.
NUGC4-hClaudin18.2 cells were digested by a digestive solution of recombinant enzyme (TrypLE™ Express Enzyme). […] The cell density was adjusted to 3×10^4 cells/mL, inoculating into 96-well cell culture plate at 100 μL/well. The cells were cultured overnight at 37° C. in 5% CO2 incubator. The next day, 9D1 ADC and small molecular toxin were diluted 5 times in a series from 1000 nM (final concentration, 500 nM) with a total of 7-8 concentration points, simultaneously setting a negative control with a sample concentration of 0, and a blank control containing only medium without cells. The diluted sample was added to 96-well cell culture plate containing cells at 100 μL/well (two duplicated wells), then incubating at 37° C. in 5% CO2 incubator for 120 hours. 20 μL of CCK-8 detection reagent (Dongren Chemical, CAS #CK04) was added to each well, incubating at 37° C. for 3-4 hours. The OD values of each well in the ELISA plate were measured at a wavelength of 450 nm and a reference wavelength of 630 nm on a multifunctional enzyme-linked immunosorbent assay (ELISA) reader, for each well, OD value=0D450 nm−OD630 nm. The cell viability of the negative control was set to 100%, and the cell viability (%) of the experimental wells was calculated according to the following formula. […]

[1] = test system: HEK293-hClaudin18.2 cells; assay: In vitro cell killing activity, HEK293-hClaudin18.2 cell line (AlamarBlue); format: cell-based
Protocol: HEK293-hClaudin18.2 cells were cultured in DMEM medium containing 10% FBS, supplemented with 250 μg/mL G418 to subject to adherent culture at 37° C. in 5% CO2 incubator. When the cell confluence was greater than 80%, the cells were passaged at a ratio of 1:20 to 1:40 every 3 days.
HEK293-hClaudin18.2 cells were digested by a digestive solution of recombinant enzyme (TrypLE™ Express Enzyme). After counting, an appropriate amount of cells were taken to resuspend with DMEM+10% FBS. The cell density was adjusted to 2×10^4 cells/mL, inoculating into 96-well cell culture plate at 100 μL/well. The cells were cultured overnight at 37° C. in 5% CO2 incubator. The next day, 9D1 ADC and small molecular toxin were diluted 10 times in a series from 1000 nM (final concentration, 500 nM) with a total of 7-8 concentration points, simultaneously setting a negative control with a sample concentration of 0, and a blank control containing only same volume (200 μL/well) of medium without cells. The diluted sample was added to 96-well cell culture plate containing cells at 100 μL/well (two duplicated wells), then incubating at 37° C. in 5% CO2 incubator for 72 hours. The cell viability was detected by the AlamarBlue detection method mentioned above, then processing data to calculate the IC50 values, and the results are shown in Table 5 below.

[2] = test system: B16F10-hClaudin18.2 cells; assay: Immunogenic cell death of B16F10-hClaudin18.2 cells (Calreticulin/PI FACS); format: cell-based; details: small molecular drug load 10 nM, 48 hours
Protocol: The B16F10-hClaudin18.2 cells were resuscitated and cultured in a medium of DMEM (Thermo, cat #: 10569044)^+10% FBS (Thermo, Cat #: 10099-141C)+0.5 μg/mL Puromycin to subject to adherent culture at 37° C. in 5% CO2 incubator. When the cell confluence was greater than 80%, the cells were passaged at a ratio of 1:10 to 1:20 every 3-4 days.
When the cells grew to a confluence of about 80%, the cells were digested by a digestive solution of recombinant enzyme (TrypLE™ Express Enzyme, Thermo, cat #: 12605028). Then the cells were resuspended with DMEM+10% FBS, and an appropriate volume was taken for counting. The cell density was adjusted to 1×10^4 cells/mL, and inoculated into 96-well cell plate at 100 μL/well to culture overnight at 37° C. in 5% CO2 incubator. The next day, the ADC drug was diluted with DMEM+10% FBS medium to a final concentration of 750 nM, the small molecule toxin Exatecan was diluted to a final concentration of 10 nM, and sample concentration of 0 was set as blank control. The diluted samples were respectively added to 96-well cell culture plate containing cells at 100 μL/well to incubate at 37° C. in 5% CO2 incubator for 48 hours. […]

[3] = test system: MC38 hClaudin18.2 tumor (high expression of p-gp); assay: Pharmacodynamics in p-gp mediated drug-resistant tumor bearing mouse model; format: in vivo; details: in words; ADC 10 mg/kg i.p. QW × 2, Tariquidar p.o. QD × 10
Protocol: Modeling and administration of tumor bearing mice: BALB/c Nude mice (female, 5-6 week old) were subcutaneously inoculated with MC38 hClaudin18.2 cells (1×10^6 cells in […]) on the ventral side. When the tumor volume increased to about 120 mm^3, the mice were randomly divided into groups and administered according to Table 10. The tumor and body weight were measured twice a week to calculate the tumor volumes (TV, mm^3) and plot the tumor growth curves. TV (mm^3)=(L×W^2)/2, wherein L represents tumor length, and W represents tumor width. GraphPad Prism software (GraphPad Software, San Diego, California) and XY mode were selected to plot the tumor growth curves and weight curves of mice, and the tumor volumes and weights were represented as mean±standard error.

| SMILES | IC50 (MC38-hClaudin18.2 cells; Mus musculus, read-out: IC50 values (nM), MC38-hClaudin18.2 cells, 48-72 hours, AlamarBlue) [nM] | pIC50 (MC38-hClaudin18.2 cells; read-out: IC50 values, MC38-hClaudin18.2 cells, 48-72 hours, AlamarBlue) | IC50 (NUGC4-hClaudin18.2 cells) [nM] | IC50 ([1]; 72 h, read-out: IC50 values (nM), HEK293-hClaudin18.2 cells, 72 hours, AlamarBlue) [nM] | pIC50 ([1]; read-out: IC50 values, HEK293-hClaudin18.2 cells, 72 hours, AlamarBlue) | ratio of Calreticulin(+)/PI(−) cells [2] | tumor inhibitory effect [3] |
| --- | --- | --- | --- | --- | --- | --- | --- |
| CC[C@@]1(O)C(=O)OCc2c1cc1n(c2=O)Cc2c-1nc1cc(F)c(C)c3c1c2[C@@H](N)CC3 [Exatecan] | 4.1 | 8.39 | 2.01 | 0.51 | 9.29 | significantly raised | – |
| CC[C@@]1(O)C(=O)OCc2c1cc1n(c2=O)Cc2c-1nc1cc(F)c(C)c3c1c2[C@@H](NC(=O)CO)CC3 [Dxd] | – | – | – | – | – | significantly raised | – |
| COc1cc2c(cc1OC)CN(CCc1ccc(NC(=O)c3cc(OC)c(OC)cc3NC(=O)c3cnc4ccccc4c3)cc1)CC2 [Tariquidar] | – | – | – | – | – | – | has no tumor inhibitory effect |
